{"source": "patent US11666562B2", "about": "“Ilaprazole for inhibiting the release of enveloped viruses from cells” (Northwestern University, priority 2020, dated 2023)", "key": {"[1]": {"system": "HSV-2", "assay": "Release of HSV-2 from infected Vero cells, plaque assay", "format": "cell-based, Herpes simplex virus-2(A/B-G)", "conditions": "for Anti-HSV-2 activity (release from Vero cells), in words: Table 2, 24 h", "description": "(§1) We infected Vero cells with HSV-1 and HSV-2 for two hours at a multiplicity of infection (MOI in pfu\\cell) of 0.1 to assay the antiviral activity of tenatoprazole. Following infection, cells were treated with different concentrations of tenatoprazole. After 24 or 48 h the media fractions were collected and released virus titers were determined by standard plaque assays (30). Tenatoprazole caused a 3-log drop of HSV-1 and 4-5 log drop of HSV-2 in released infectious virus from Vero cells at 24 hours after infection in a dose dependent manner (Table 1, shown in FIG. 5, columns 2 and 3) with calculated EC50's ranging from 48-80 μM. Total virus titer was also determined to differentiate between virus released into the media and infectious particles present in cell lysate. […] The concentrations of tenatoprazole that blocked virus release were nontoxic to Vero cells as determined by a 96® AQueous One Solution cell proliferation assay reagent (Table 1, shown in FIG. 5, column 7). Taken together, tenatoprazole inhibited levels of both released and infectious virus particles without affecting cell viability at effective concentrations.\nTo examine the effects of the compounds on the release of HSV-2 from Vero cells, we infected the cells with virus two hours prior to treatment with media containing different concentrations of compound. We incubated the cells for 24 or 48 hours and then collected the cell media fractions.\n(§2) Herpesvirus infection of Vero cells. Vero cells (0.8×10^6 cells/well of a 6-well plate) were infected with HSV-1 or HSV-2 at a MOI of 0.1 pfu/cell in DMEM with 1% serum for two hours in the C02 incubator at 37° C. In one experiment looking at the effect of tenatoprazole on HSV-2 release from cells 24 and 48 h a MOI of 3 pfu/cell was used. The cell supernatants were aspirated and replaced with 1 ml (24 h) or 2 ml (48 h and 72 h) of DMEM with 1% serum with DMSO or different concentrations of drug (tenatoprazole, ilaprazole, or analogs) dissolved in DMSO. After 24 or 48 h incubation, the cell supernatant was collected and frozen at −80° C. Virus titer in the cell media fraction was determined by standard plaque assays using 10-fold serial dilutions of cell supernatants of Vero cells and incubated for 48 h after which cells were fixed and stained to count the plaques (22). For determination of total virus (extracellular+cytoplasmic), virus infected cells were incubated for 24 h with and without drug presence, then the plate of cells were subjected to 3 cycles of freeze/thawing (−80° C./37° C.) 30 min each prior to collecting the supernatant after centrifugation for measurement of total virus titer. Virus titer was measured by standard plaque assay as above.\n(§3) Drug potency and cell toxicity. EC50 calculations were determined by using AAT Bioquest's EC50 calculator. Cell toxicity at different concentrations of drugs as indicated was determine using the Cell Proliferation Reagent WST-1 (Roche Diagnostics) or cellular 96® Aqueous One Reagent viability reagent according to manufacturer's instructions. For 293T cells, the concentration of DMSO was 0.2% or less and assays were carried out with DMEM with 10% serum. Cell toxicity experiments were repeated twice."}, "[2]": {"system": "HIV-1", "conditions": "earlier reports (refs 5, 29); cited from earlier work"}, "[3]": {"target": "T1, Tsg101-UEV (Tsg101 amino acids 1-145) (Homo sapiens, UniProt Q99816)", "T1 construct": "The recombinant Tsg101 fragment (amino acids 1-145), prepared as described above in Materials and Methods; His6 (N); thrombin protease cleavage site (N); made in house; host or cells: E. coli ROSETTA 2 (DE3) pLysS", "T1 sequence (Q99816 1-145)": "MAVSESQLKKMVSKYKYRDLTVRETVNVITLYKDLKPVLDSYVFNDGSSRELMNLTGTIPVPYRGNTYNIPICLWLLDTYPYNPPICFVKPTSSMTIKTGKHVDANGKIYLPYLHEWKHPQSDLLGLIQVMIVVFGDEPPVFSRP", "assay": "Fluorescence thermal shift (FTS) assay, binding to Tsg101-UEV", "conditions": "FTS, Sypro-Orange, no DTT", "description": "The fluorescence-based thermal shift assay is based on the observation that a protein unfolds upon heating, exposing the hydrophobic residues within its tertiary structure. The unfolding temperature (Tm) is determined by the protein's primary sequence and solution environment. The FTS assay uses a fluorescent dye sensitive to a hydrophobic environment to probe protein stability and its modulation by small molecule ligands. The dye has a low fluorescence quantum yield when in a polar environment. Once in contact with the hydrophobic core normally buried within a folded protein that has become exposed during the thermal unfolding (melting) process, the quantum yield of the dye increases, thus providing a reporting signal. Furthermore, a protein's stability can be affected by ligand binding, resulting in an increase or decrease in its melting temperature. FTS assay uses the Tm shift upon binding of a ligand to identify hit compounds for drug discovery.\nIdentification of prazole compounds that bind the UEV ubiquitin-binding domain of Tsg101. We screened chemical compounds using a fluorescence thermal shift (FTS) assay (27, 28) to identify small molecules that bind directly to a truncated form of Tsg101 (amino acids 1-145) which contains the Ubiquitin E2 variant (UEV) ubiquitin-binding domain (FIG. 1). The UEV, which contains the PT/SAP binding domain in addition to the ubiquitin-binding domain, provides chaperone functions to HIV-1 Gag that is independent of its interaction with the PS/TAP motif, and contains the prazole binding site (5). This truncated Tsg101, called Tsg101-UEV, was used because full-length Tsg101 has significant solubility issues in aqueous solution. Tsg101 is an adaptor protein and thus lacks a readily deployable functional assay, making FTS a tractable approach to identify interacting compounds. FTS monitors protein thermal denaturation using SYPRO-Orange, a dye which fluoresces when bound to hydrophobic surfaces, which allows monitoring of the changes in hydrophobic surface exposure during protein denaturation (27). Since ligand binding affects protein thermal stability, it can be detected through modulation of protein thermal denaturation (melting) as a shift in melting temperature (Tm). Tsg101-UEV has a well-defined melting curve suitable for FTS. We used the FTS assay to identify compounds that bind to Tsg101-UEV.\nPurification of Tsg101 (1-145). N-terminally His6-tagged Tsg101 UEV domain (amino acids 1-145), called Tsg101-UEV, was encoded in a pET-28b vector (Novagen—EMD Millipore), which also included a thrombin protease cleavage site (His6-Thrombin Site-Tsg101, 1-145). Tsg101-UEV was grown in LB broth with Kanamycin (30 μg/ml) in ROSETTA 2 (DE3) pLysS E. coli competent cells (EMD Millipore) and induced with 1 mM IPTG at room temperature for 3 h. Bacteria were collected by centrifugation at 4,000 rpm for 10 min at […]. Bacteria were suspended in 50 ml binding buffer (20 mM Tris-HCl, pH 7.9, 0.5 M NaCl, 5 mM Imidazole) with 1 mM PMSF, 0.1% NP40, and a Protease Inhibitor Cocktail Tablet (Roche) and sonicated for 3.5 min on ice. The sonicate was spun at 9,000 rpm for 1 h at […] in a Sorvall centrifuge. The supernatant was collected and passed through a 1.5 ml Ni-NTA Agarose column. The column was washed with 20 mM Tris-HCl, pH 7.9, 0.5 M NaCl, 30 mM Imidazole wash buffer. […] Protein concentration was determined with a Nano Drop Spectrophotometer at […]. […]"}, "[4]": {"system": "HSV-1", "assay": "Release of HSV-1 from infected Vero cells, plaque assay", "format": "cell-based, Herpes simplex virus-1 (Kos strain)", "conditions": "different concentrations, repeated 4 times", "description": "as §1, §2, §3"}}, "data": [{"smiles": "COc1ccnc(C[S+]([O-])c2nc3ccc(OC(F)F)cc3[nH]2)c1OC", "note": "(stereo not shown) [pantoprazole]", "values": [{"measurement": "Anti-HSV-2 activity (release from Vero cells), in words", "setting": "[1]", "value": "inactive"}]}, {"smiles": "COc1ccc2nc([S@@+]([O-])Cc3ncc(C)c(OC)c3C)[nH]c2c1", "note": "[esomeprazole]", "values": [{"measurement": "Inhibition of release of infectious HIV-1 from 293T cells", "setting": "[2]", "value": "quantitatively inhibit the release"}, {"measurement": "EC50", "setting": "[1]; Human alphaherpesvirus 2, Vero cells, MOI 0.1, 24 h, read-out: EC50, inhibition of HSV-2 release", "value": 140, "unit": "µM"}]}, {"smiles": "COCCCOc1ccnc(C[S+]([O-])c2nc3ccccc3[nH]2)c1C", "note": "(stereo not shown) [rabeprazole]", "values": [{"measurement": "Anti-HSV-2 activity (release from Vero cells), in words", "setting": "[1]", "value": "inactive"}]}, {"smiles": "COc1ccc2nc([S+]([O-])Cc3c(C)c(OC)c(C)c[n+]3[O-])[nH]c2c1", "note": "(stereo not shown) [omeprazole-N-oxide]", "values": [{"measurement": "Tm (melting temperature) shift of Tsg101-UEV", "setting": "[3]", "value": "did not cause a detectable thermal shift"}, {"measurement": "Anti-HSV-2 activity (release from Vero cells), in words", "setting": "[1]", "value": "inactive"}]}, {"smiles": "NC(CO)C(=O)NNCc1ccc(O)c(O)c1O", "note": "(stereo not shown) [benserazide (K21), benserazide]", "values": [{"measurement": "Effect on release of HSV-1 from VERO cells", "setting": "[4]", "value": "did not appear to affect release of virus from cells"}]}]}
